# Assay results: patent publication US12427137B2, “Method for reducing methane production in animal stomach” (CHINA AGRICULTURAL UNIVERSITY, priority 2022, dated 2025)
# Marks after values point to notes of the source that are not given here.
# Experiments:
# [1] = tested on: rumen fluids of cows (in vitro rumen fermentation system); assay: In vitro fermentation of rumen fluids of cows, methane content by gas chromatography; type: cell-based; conditions: for methane production of the in vitro rumen fermentation system: FIG. 1
# Text: Rumen fluids were collected from fistulated cows before morning feeding, filtered through 4 layers of gauze, and then brought back to the laboratory by placing in a thermos flask. The experiment comprised a control group (CON) and melatonin groups (MT: 10^−3 mol/L, 10^−5 mol/L, 10^−7 mol/L). The cattle farm Total Mixed Rations (TMR) was used as the fermentation substrate, and artificial saliva was used as the matrix. Oxygen in the fermentation flasks was replaced with nitrogen. Then, the rumen fluids were incubated anaerobically at 39° C. in an incubator, which was connected to a gas bag to collect the fermentation gas. The methane content in the gas bag was detected by gas chromatography. In vitro experiment: melatonin was added during the in vitro simulation of rumen fermentation. The in vitro rumen fermentation system of 75 mL in each bottle comprises 0.5 g TMR powder, 50 mL of artificial saliva and 25 mL of filtered rumen fluid. The 10^−3 mol/L, 10^−5 mol/L and 10^−7 mol/L melatonin groups (melatonin dissolved in a small amount of DMSO and diluted to these concentrations with saline) and a control group (only solvent, i.e., a small amount of DMSO+saline) were set up separately. For each group, the samples were collected at the fermentation times 2 h, 4 h, 8 h, 24 h and 48 h. Three replicates were set for each sample. After fermenting anaerobically at 39° C., the gas bags and fermentation liquid were collected. Gas chromatography was used to detect the methane content in the gas of the gas bags. The obtained data were analyzed by one-way analysis of variance (One Way ANOVA) by means of SPSS® (Statistical Product and Service Solutions) statistical software. p<0.05 indicated significant difference and p<0.01 indicated extremely significant difference. The DunCan test was used for multiple comparisons. The results were expressed as means±SEM. Addition form I: adding melatonin powder (MT p) directly to the fermentation system to a final concentration of 2×10−3 mol/L. Addition form II: adding concentrated melatonin solution (MT s) of 10^−3 mol/L at 0 h and 24 h respectively.
# [2] = Melatonin concentration in rumen fluids of cows fed with melatonin; type: in vivo; conditions: cows fed 15 mg/kg/day, days 7 to 21, FIG. 2
# Protocol: (§1) In vivo experiment: twenty lactating cows with similar ages and body conditions were selected and randomly divided into two groups, a control group (fed with digestible paper only) and a melatonin-fed group (fed with melatonin wrapped in digestible paper, 15 mg/kg/day). Each group had 10 cows. The cows were fed every morning after milking. The treatment lasted for 21 days. The rumen fluids were collected with rumen collection tubes before the morning feeding on days 0, 7, 14 and 21, respectively. The concentrations of melatonin in the rumen fluids were measured by liquid chromatography tandem mass spectrometry (LC-MS/MS). The breathing gas of the cows was collected by a breathing gas collection system to detect the methane content therein. Meanwhile, the information (e.g., the health condition and milk quality) of the cows was also recorded to monitor the influence of the feeding experiment on the dairy production.
# Twenty lactating cows with similar ages and body conditions were selected and randomly divided into two groups, a control group (CON, fed with digestible paper only) and a melatonin-fed group (MT, fed with melatonin wrapped in digestible paper). Each group had 10 cows. […] And the melatonin contents in the rumen fluids were determined by […]. […]
# lactating cows = assay: Methane content in respiratory gases of cows fed with melatonin; type: in vivo; conditions: fed 15 mg/kg/day
# Protocol: as §1, with “production. Lactating cows were fed with melatonin powder of 15 mg/kg/day for 21 days. The respiratory gases were collected from each group at days 0, 7, 14 and 21 by using a respiratory gas collection system. The methane contents in the gases were detected by gas chromatography. […] In addition, this effect can be maintained for a longer period of time.” for “production.”
# [3] = tested on: rumen fluids (in vitro rumen fluid fermentation); assay: Volatile fatty acids (VFAs) from the in vitro rumen fluid fermentation, gas chromatography; type: cell-based, cows; conditions: 10^−3 mol/L melatonin, 48 h
# Protocol: Rumen microorganisms can degrade plant fibers and produce VFAs, which in turn provide energy substances to the hosts. Thus, we analyzed the production of VFAs from the in vitro fermentation system. Based on the above experiments, we determined to in vitro treat the rumen fluids with 10^−3 mol/L of melatonin solution for 48 h. The levels of six VFAs (i.e., acetate (A), propionate (P), butyrate (B), isobutyrate, valerate and isovalerate), were detected in the in vitro rumen fluid fermentation solution by gas chromatography. […] In the rumens of ruminant animals, CO2 and H2 are mainly produced during the conversion of pyruvate into acetate and butyrate in glycolysis, and glucose can be generated from propionate. The A/P ratios of the two groups were compared, 3.00 for the control group and 3.372 for the melatonin group.
# rumen microbial flora = assay: Microorganism compositions of the in vitro rumen fermentation system (Alpha diversity, differential species analysis); type: cell-based, cows
# Protocol: Alpha diversity can reflect the abundance and diversity of microbial flora. […] In order to clarify the species classification information of the microbial flora, the cluster analysis was performed to generate OTUs. FIGS. 5E-5F show the cluster diagram of the annotations at order level. […] There were significant differences in the relative abundance of Clostridiales, Bacteroides, Monadales, Desulfovibrionales and the like. The abundance of the microbial flora (e.g. Prevotella spp. and Succiniclasticum spp.) producing propionate and butyrate decreased, while the abundance of the microbial flora (e.g., Bifidobacterium) producing acetate increased. […] Each circle represents a species at the specific taxonomic level, and the size of the circle is positively correlated with the relative abundance of the species. The species with no significant differences are uniformly colored yellow, and the biomarkers for the species with differences are indicated with the color of the corresponding group.
# [4] = tested on: archaea / methanogenic genera of the rumen microbial flora; assay: Metagenome sequencing of in vitro fermentation rumen fluids (archaea); type: cell-based, cows; conditions: melatonin treatment vs control, FIG. 7B
# Protocol: Metagenome sequencing was performed in order to further study the changes in the rumen microbial flora. In addition to the analysis of the gene table, the metagenome sequencing can also analyze the microbial compositions of the samples. Thus, it can obtain more information on the species, including phages, viruses, fungi, archaea and the like, other than bacteria. […] Due to the discovery of the methane-reducing effect of melatonin, we focused on the changes of archaea. 72 species archaea species, which had different abundance between the control and melatonin groups, were screened. […] Thus, melatonin can reduce the methane production by reducing the abundance of most methanogenic microbial flora.
smiles,measurement,setting,value
COc1ccc2[nH]cc(CCNC(C)=O)c2c1 [melatonin],methane production of the in vitro fermentation,"[1]; 10^−3 mol/L, 48 h, vs control",significantly reduced
same,methane production of the rumen fermentation liquid,"[1]; 10^−3 to 10^−7 mol/L, 4 h to 8 h",reduced
same,reduction of methane production as compared with the control group,"[1]; 4 h, all concentrations of melatonin groups (10^−3 to 10^−7 mol/L)",about 15%
same,methane content (%),"[1]; MT 10^−3 mol/L, fermentation time 2 h",0.99 ± 0.05%
same,methane content (%),"[1]; MT 10^−3 mol/L, fermentation time 4 h",3.42 ± 0.13%
same,methane content (%),"[1]; MT 10^−3 mol/L, fermentation time 8 h",4.43 ± 0.39%
same,methane content (%),"[1]; MT 10^−3 mol/L, fermentation time 24 h",9.68 ± 0.07%
same,methane content (%),"[1]; MT 10^−3 mol/L, fermentation time 48 h",10.79 ± 0.53^b %
same,methane content (%),"[1]; MT 10^−5 mol/L, fermentation time 2 h",1.09 ± 0.06%
same,methane content (%),"[1]; MT 10^−5 mol/L, fermentation time 4 h",3.47 ± 0.07%
same,methane content (%),"[1]; MT 10^−5 mol/L, fermentation time 8 h",4.47 ± 0.39%
same,methane content (%),"[1]; MT 10^−5 mol/L, fermentation time 24 h",10.4 ± 0.24%
same,methane content (%),"[1]; MT 10^−5 mol/L, fermentation time 48 h",12.65 ± 0.45^a %
same,methane content (%),"[1]; MT 10^−7 mol/L, fermentation time 2 h",1.03 ± 0.07%
same,methane content (%),"[1]; MT 10^−7 mol/L, fermentation time 4 h",3.45 ± 0.05%
same,methane content (%),"[1]; MT 10^−7 mol/L, fermentation time 8 h",5.16 ± 0.14%
same,methane content (%),"[1]; MT 10^−7 mol/L, fermentation time 24 h",10.6 ± 0.44%
same,methane content (%),"[1]; MT 10^−7 mol/L, fermentation time 48 h",11.25 ± 0.67^a %
same,methane production of the in vitro rumen fermentation system,"[1]; addition form I: melatonin powder (MT p), final concentration 2×10−3 mol/L, 48 h",significantly reduced
same,methane production of the in vitro rumen fermentation system,"[1]; addition form II: concentrated melatonin solution (MT s) of 10^−3 mol/L at 0 h and 24 h, 48 h",significantly reduced
same,melatonin concentrations in the rumen fluids,[2],significantly increased
same,methane production from the respiration of the cows,"lactating cows; day 14, FIG. 3",decreased significantly
same,methane production from the respiration of the cows,"lactating cows; day 21, FIG. 3",decreased to a similar extent as at day 14
same,methane production from the respiration of the cows,"lactating cows; from day 7, FIG. 3",decreased
same,level of acetic acid in rumen fluids,[3]; FIG. 4,significantly reduced
same,level of propionic acid in rumen fluids,[3]; FIG. 4,significantly reduced
same,A/P ratio (acetate/propionate),[3]; control group 3.00,3.372
same,"abundance of the microbial flora producing acetate (e.g., Bifidobacterium)",rumen microbial flora; FIGS. 6A-6B,increased
same,abundance of the microbial flora producing propionate and butyrate (e.g. Prevotella spp. and Succiniclasticum spp.),rumen microbial flora; FIGS. 6A-6B,decreased
same,diversity of rumen microbial flora (Alpha diversity),"rumen microbial flora; melatonin added to the fermentation system, FIGS. 5A-5D",increased
same,"compositions of the microbial flora (relative abundance of orders Clostridiales, Bacteroides, Monadales, Desulfovibrionales)","rumen microbial flora; melatonin treatment, FIGS. 5E-5F",significant changes
same,"abundance of most methanogenic genera (Halobacterium, Methanoplanus, Methanococcoides, Methanoculleus, Methanothrix spp.)",[4],reduced
